Columns and labels:
L cells [1] = assay: Evaluated in vitro for ability to inhibit the L cell lines.; type: functional, cell-based; settings: Mus musculus, L929
Detroit 98 = assay: Evaluated in vitro for ability to inhibit the Detroit 98 cell lines; type: functional, cell-based; settings: Homo sapiens
[2] = biological target: T1, Bifunctional purine biosynthesis protein ATIC (Mus musculus, UniProt Q9CWJ9); assay: Hexaglutamyl homologue inhibition activity against the AICAR formyltransferase was determined against L cell; type: cell-based
T1 sequence (Q9CWJ9 whole entry): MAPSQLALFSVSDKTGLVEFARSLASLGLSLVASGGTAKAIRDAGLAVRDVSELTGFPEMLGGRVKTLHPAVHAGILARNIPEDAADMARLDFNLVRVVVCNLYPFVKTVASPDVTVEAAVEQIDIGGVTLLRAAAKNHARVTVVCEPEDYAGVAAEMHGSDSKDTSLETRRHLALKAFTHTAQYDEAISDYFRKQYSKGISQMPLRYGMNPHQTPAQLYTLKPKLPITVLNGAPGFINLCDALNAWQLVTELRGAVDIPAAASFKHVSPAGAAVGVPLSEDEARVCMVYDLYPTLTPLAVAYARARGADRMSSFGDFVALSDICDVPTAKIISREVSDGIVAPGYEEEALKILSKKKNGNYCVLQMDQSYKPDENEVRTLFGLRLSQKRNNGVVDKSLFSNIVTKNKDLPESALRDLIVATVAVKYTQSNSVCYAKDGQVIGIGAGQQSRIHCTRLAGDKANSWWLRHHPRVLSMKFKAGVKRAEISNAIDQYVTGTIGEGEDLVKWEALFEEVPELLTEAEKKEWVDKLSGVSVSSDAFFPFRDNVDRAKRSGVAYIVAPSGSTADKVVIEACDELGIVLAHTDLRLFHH

[3] = biological target: T2, Bifunctional purine biosynthesis protein ATIC (Homo sapiens, UniProt P31939); assay: Inhibition activity against AICAR formyltransferase determined against MOLT-4; type: cell-based
T2 sequence (P31939 whole entry): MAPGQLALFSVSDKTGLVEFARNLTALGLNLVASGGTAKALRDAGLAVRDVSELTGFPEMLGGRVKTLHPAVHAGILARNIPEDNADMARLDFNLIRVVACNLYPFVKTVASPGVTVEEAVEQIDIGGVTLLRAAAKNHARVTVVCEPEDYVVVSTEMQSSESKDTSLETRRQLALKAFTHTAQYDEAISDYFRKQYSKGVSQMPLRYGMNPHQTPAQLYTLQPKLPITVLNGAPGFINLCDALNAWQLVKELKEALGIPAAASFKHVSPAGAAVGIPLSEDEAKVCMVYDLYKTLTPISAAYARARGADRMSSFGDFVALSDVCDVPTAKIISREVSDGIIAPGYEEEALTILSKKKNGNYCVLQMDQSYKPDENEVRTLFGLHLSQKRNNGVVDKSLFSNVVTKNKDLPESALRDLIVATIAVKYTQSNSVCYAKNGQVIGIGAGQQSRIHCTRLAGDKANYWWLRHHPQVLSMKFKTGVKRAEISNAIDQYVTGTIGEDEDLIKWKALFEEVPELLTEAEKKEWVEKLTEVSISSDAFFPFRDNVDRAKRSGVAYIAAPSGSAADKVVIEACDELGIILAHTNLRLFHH

[4] = biological target: T1, Bifunctional purine biosynthesis protein ATIC; assay: Triglutamyl homologue inhibition activity against AICAR formyltransferase was determined against L cell; type: cell-based
[5] = biological target: T1, Bifunctional purine biosynthesis protein ATIC; assay: Diglutamyl homologue inhibition activity against the AICAR formyltransferase was determined against L cell; type: cell-based
[6] = biological target: T1, Bifunctional purine biosynthesis protein ATIC; assay: Inhibition activity against AICAR formyltransferase determined against L cell; type: cell-based
[7] = biological target: T2, Bifunctional purine biosynthesis protein ATIC; assay: Hexaglutamyl homologue inhibition activity against the AICAR formyltransferase was determined against MOLT-4; type: cell-based
Sus scrofa [8] = species: Sus scrofa; assay: Relative Vmax for its activation for Hog Liver Folyl-polyglutamate synthase was determined
L cells [9] = assay: Evaluated for reversal of L cell inhibition, where reversal of toxicity was evaluated by the addition of Thymidine + Hypoxanthine; type: functional, Mus musculus, L929
L cells [10] = assay: Evaluated for reversal of L cell inhibition, where reversal of toxicity was evaluated by the addition of Leucovorin (0.2 uM); type: functional, Mus musculus, L929
L cells [11] = assay: Evaluated for reversal of L cell inhibition, where reversal of toxicity was evaluated by the addition of Hypoxanthine (37 uM); type: functional, Mus musculus, L929
[12] = Ratio of app Km to ral Vmax
L cells [13] = assay: Evaluated for reversal of L cell inhibition, where reversal of toxicity was evaluated by the addition of Thymidine (20 uM); type: functional, Mus musculus, L929
Sus scrofa [14] = species: Sus scrofa; assay: Apparent Km in uM for its activation for Hog Liver Folyl-polyglutamate synthase was determined
[15] = biological target: T3, C-1-tetrahydrofolate synthase, cytoplasmic (Mus musculus) (UniProt Q922D8); assay: Evaluated for inhibitory activity on 5,10-Methenyl Tetrahydrofolate Cyclohydrolase(L cell) at folate substrate concentration of 100 uM
T3 sequence (whole entry): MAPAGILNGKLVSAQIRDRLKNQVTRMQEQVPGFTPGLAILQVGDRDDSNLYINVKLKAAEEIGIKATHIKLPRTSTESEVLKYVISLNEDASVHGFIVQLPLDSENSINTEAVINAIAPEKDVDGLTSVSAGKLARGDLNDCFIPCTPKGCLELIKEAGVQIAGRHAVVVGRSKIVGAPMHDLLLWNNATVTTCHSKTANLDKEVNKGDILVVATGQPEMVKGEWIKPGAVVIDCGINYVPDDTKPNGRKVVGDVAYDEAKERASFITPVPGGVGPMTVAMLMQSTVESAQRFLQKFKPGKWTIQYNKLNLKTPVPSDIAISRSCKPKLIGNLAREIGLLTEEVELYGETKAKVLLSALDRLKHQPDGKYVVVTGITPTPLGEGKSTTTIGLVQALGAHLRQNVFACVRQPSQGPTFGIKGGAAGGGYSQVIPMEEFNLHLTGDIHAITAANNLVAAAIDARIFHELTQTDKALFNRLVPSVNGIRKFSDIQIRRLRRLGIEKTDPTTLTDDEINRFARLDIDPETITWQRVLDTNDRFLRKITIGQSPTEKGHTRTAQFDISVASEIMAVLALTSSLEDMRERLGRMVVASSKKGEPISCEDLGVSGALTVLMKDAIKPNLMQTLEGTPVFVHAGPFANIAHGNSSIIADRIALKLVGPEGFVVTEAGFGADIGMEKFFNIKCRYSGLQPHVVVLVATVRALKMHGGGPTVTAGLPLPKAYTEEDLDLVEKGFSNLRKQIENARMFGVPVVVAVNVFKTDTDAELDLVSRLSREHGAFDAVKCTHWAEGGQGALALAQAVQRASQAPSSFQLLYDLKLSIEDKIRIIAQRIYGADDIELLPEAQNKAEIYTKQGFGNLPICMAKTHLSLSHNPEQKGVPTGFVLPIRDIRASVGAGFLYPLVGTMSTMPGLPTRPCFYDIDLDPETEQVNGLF

[16] = biological target: T4, Dihydrofolate reductase (Rattus norvegicus) (UniProt Q920D2); assay: Evaluated for inhibitory activity on Dihydrofolate reductase(rat liver) at folate substrate concentration of 45 uM
T4 sequence (whole entry): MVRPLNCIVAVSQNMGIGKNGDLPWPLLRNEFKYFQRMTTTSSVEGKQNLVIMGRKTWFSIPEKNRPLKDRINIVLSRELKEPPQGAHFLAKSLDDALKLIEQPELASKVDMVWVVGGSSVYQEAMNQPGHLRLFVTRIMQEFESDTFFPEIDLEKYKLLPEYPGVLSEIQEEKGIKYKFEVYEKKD

[17] = biological target: Methionine synthase (Mus musculus) (UniProt A6H5Y3); assay: Evaluated for inhibitory activity on Methionine synthase(L cell) at folate substrate concentration of 100 uM
Methionine synthase (Mus musculus), sequence (A6H5Y3 whole entry): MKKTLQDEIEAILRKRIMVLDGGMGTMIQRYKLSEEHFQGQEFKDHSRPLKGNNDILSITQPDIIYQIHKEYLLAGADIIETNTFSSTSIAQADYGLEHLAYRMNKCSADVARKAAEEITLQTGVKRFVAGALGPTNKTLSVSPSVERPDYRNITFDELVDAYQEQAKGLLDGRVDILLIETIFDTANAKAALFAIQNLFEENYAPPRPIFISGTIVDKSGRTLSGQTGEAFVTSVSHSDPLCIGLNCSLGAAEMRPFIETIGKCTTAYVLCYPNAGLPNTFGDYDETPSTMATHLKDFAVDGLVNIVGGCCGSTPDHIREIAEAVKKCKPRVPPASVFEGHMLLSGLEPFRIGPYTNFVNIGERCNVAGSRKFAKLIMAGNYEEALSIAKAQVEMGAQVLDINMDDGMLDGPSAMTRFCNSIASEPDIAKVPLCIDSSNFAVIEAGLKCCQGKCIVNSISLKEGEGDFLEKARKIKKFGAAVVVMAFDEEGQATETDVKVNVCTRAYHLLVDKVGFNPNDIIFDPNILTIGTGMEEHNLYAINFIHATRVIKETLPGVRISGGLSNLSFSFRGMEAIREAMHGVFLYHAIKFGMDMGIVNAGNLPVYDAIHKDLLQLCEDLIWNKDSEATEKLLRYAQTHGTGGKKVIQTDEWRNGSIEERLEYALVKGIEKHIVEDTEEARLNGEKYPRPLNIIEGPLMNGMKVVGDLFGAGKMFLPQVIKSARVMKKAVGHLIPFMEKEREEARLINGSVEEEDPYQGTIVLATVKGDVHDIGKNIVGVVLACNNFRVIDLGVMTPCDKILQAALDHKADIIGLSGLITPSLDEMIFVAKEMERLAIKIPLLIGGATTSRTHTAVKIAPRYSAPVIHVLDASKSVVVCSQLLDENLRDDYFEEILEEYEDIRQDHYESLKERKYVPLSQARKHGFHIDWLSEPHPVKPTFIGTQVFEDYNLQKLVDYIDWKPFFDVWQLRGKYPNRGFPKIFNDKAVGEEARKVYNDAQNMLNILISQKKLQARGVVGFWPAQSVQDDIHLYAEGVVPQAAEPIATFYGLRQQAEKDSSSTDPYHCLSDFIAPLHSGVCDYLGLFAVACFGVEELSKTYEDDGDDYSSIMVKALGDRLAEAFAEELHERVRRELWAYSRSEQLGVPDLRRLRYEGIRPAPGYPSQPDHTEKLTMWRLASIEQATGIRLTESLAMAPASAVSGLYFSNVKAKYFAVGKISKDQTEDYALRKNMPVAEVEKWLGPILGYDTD

[18] = biological target: T5, Serine hydroxymethyltransferase, cytosolic (Mus musculus) (UniProt P50431); assay: Evaluated for inhibitory activity on Serine hydroxymethyl transferase (Lcell) at folate substrate concentration of 160 uM
T5 sequence (whole entry): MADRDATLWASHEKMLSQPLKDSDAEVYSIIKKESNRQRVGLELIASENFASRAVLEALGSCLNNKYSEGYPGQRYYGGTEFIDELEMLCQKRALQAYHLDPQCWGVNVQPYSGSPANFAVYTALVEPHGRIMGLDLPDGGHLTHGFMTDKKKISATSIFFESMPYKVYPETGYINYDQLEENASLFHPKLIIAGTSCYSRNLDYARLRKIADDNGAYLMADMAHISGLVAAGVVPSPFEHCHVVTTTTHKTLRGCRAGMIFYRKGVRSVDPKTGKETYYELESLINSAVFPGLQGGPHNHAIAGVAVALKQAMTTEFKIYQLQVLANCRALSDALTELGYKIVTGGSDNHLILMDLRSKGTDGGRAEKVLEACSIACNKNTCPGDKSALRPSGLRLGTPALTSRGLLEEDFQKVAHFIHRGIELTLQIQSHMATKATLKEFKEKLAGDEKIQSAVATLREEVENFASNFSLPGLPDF

[19] = biological target: T3, C-1-tetrahydrofolate synthase, cytoplasmic (Mus musculus); assay: Evaluated for inhibitory activity on 5,10-Methylene Tetrahydrofolate Cyclohydrolase(L cell) at folate substrate concentration of 100 uM
Mus musculus = species: Mus musculus; assay: Evaluated for inhibitory activity on 10-formyltetrahydrofolate synthetase(L cell) at folate substrate concentration of 100 uM
P388 [20] = assay: Effect on P388 tumor cell growth in mice. The percentage of increased life span was determined administered 75 mg/kg schedule - QD,days1,5,9; type: functional; settings: Mus musculus
MCF7 = assay: Antitumor activity on MCF-7 breast adenocarcinoma cell lines; type: functional, cell-based; settings: Homo sapiens
P388 [21] = assay: Effect on P388 tumor cell growth in mice. The percentage of increased life span was determined administered 10 mg/kg schedule - t.i.d., days 1-4; type: functional; settings: Mus musculus, P388, intraduodenal
[22] = test system: Thymidylate synthase (Bos taurus); assay: Evaluated for inhibitory activity on Thymidylate synthase(calf thymus) at folate substrate concentration of 200 uM
P388 [23] = assay: Effect on P388 tumor cell growth in mice. The percentage of increased life span was determined administered 7.5 mg/kg schedule - b.i.d., days 1-3; type: functional; settings: Mus musculus, P388, intraduodenal
SW480 = assay: Antitumor activity on SW 480 colon adenocarcinoma cell lines; type: functional, cell-based; settings: Homo sapiens
[24] = Inhibition activity against Glycinamide ribotide formyltransferase against L cell; type: cell-based
WiDr = assay: Antitumor activity on WiDr colon adenocarcinoma cell lines; type: functional, cell-based; settings: Homo sapiens
[25] = Hexaglutamyl homologue inhibition activity against the Glycinamide ribonucleotide transformylase (GAR-TFase) was determined against hog liver; type: tissue-based, Sus scrofa
CCRF-CEM = assay: Antitumor activity on CCRF-CEM T-cell acute lymphoblastic leukemia cell lines; type: functional, cell-based; settings: Homo sapiens
[26] = Diglutamyl homologue inhibition activity against the Glycinamide ribonucleotide transformylase (GAR-TFase)was determined against L cell; type: cell-based, Mus musculus
[27] = Hexaglutamyl homologue inhibition activity against the Glycinamide ribonucleotide transformylase (GAR-TFase) was determined against L cell; type: cell-based, Mus musculus
P388 [28] = assay: Effect on P388 tumor cell growth in mice. The percentage of increased life span was determined administered 5 mg/kg schedule - t.i.d., days 1-4; type: functional; settings: Mus musculus, P388, intraduodenal
[29] = Inhibition activity against Glycinamide ribonucleotide transformylase (GAR-TFase) against L cell; type: cell-based, Mus musculus
A-427 = assay: Antitumor activity on A-427 lung carcinoma cell lines; type: functional, cell-based; settings: Homo sapiens
MOLT-4 = assay: Antitumor activity on MOLT-4 T-cell acute lymphoblastic leukemia cell lines; type: functional, cell-based; settings: Homo sapiens
L cells [30] = assay: Evaluated for reversal of L cell inhibition, where reversal of toxicity was evaluated by the addition of Thymidine Hypoxanthine; type: functional, Mus musculus, L929
[31] = Triglutamyl homologue inhibition activity against Glycinamide ribonucleotide transformylase (GAR-TFase)was determined against L cell; type: cell-based, Mus musculus
[32] = biological target: T3, C-1-tetrahydrofolate synthase, cytoplasmic (Mus musculus); assay: Evaluated for inhibitory activity on 5,10-methylenetetrahydrofolate dehydrogenase(L cell) at folate substrate concentration of 100 uM

Row | SMILES | IC50 (L cells [1]) [nM] | IC50 (Detroit 98) [nM] | Relative Vmax (Sus scrofa [8]) [%] | Inhibition (L cells [10]) [%] | Inhibition (L cells [11]) [%] | Ratio [12] | Inhibition (L cells [13]) [%] | Km (Sus scrofa [14]) [µM] | inhibition [15] [%] | inhibition [16] [%] | inhibition [17] [%] | inhibition [18] [%] | inhibition (Mus musculus) [%] | other results
1 | CN(CCCc1c(N)nc(N)nc1O)c1ccc(C(=O)NC(CCC(=O)O)C(=O)O)cc1 (stereo not drawn) | 280 | 2000 |  |  |  |  |  |  |  |  |  |  |  | 
2 | Nc1nc(N)c(CCCNc2ccc(C(=O)N[C@@H](CCC(=O)O)C(=O)O)cc2)c(=O)[nH]1 |  |  |  |  |  |  |  |  |  |  |  |  |  | IC50 [2]: 700 nM; IC50 [3]: 94000 nM; IC50 [4]: 1900 nM; IC50 [5]: 9400 nM; IC50 [6]: 200000 nM; IC50 [7]: 700 nM
3 | Nc1nc(N)c(CCCNc2ccc(C(=O)NCC(=O)O)cc2)c(O)n1 | > 100000 | > 100000 |  |  |  |  |  |  |  |  |  |  |  | 
4 | Nc1nc(N)c2nc(CNc3ccc(C(=O)N[C@@H](CCC(=O)O)C(=O)O)cc3)cnc2n1 [AMINOPTERIN] | 2.3 | 2 | 144 | 6 | 79 | 5.9 | 68 | 24.4 |  |  |  |  |  | Inhibition (L cells [9]): 0%
5 | Nc1nc(N)c(CCCN(C=O)c2ccc(C(=O)NC(CCC(=O)O)C(=O)O)cc2)c(O)n1 (stereo not drawn) |  | 210 |  |  |  |  |  |  | 34 | 50 | 0 | 13 | 0 | inhibition [19]: 0%
6 | Nc1nc(N)c(CCCNc2ccc(C(=O)N[C@@H](CCC(=O)O)C(=O)O)cc2)c(O)n1 | 88 | 110 | 100 | 6 | 0 | 14.9 | 59 | 6.7 | 5 | 0 | 0 | 7 | 0 | ILS at 75 mg/kg (P388 [20]): 0%; IC50 (MCF7): 37 nM; ILS at 10 mg/kg (P388 [21]): 80%; inhibition [22]: 0%; ILS at 7.5 mg/kg (P388 [23]): 40%; IC50 (SW480): 50 nM; IC50 [24]: 2600 nM; IC50 (WiDr): 45 nM; IC50 [25]: 260 nM; IC50 (CCRF-CEM): 47 nM; IC50 [26]: 400 nM; IC50 [27]: 80 nM; ILS at 5 mg/kg (P388 [28]): 22%; IC50 [29]: 3000 nM; IC50 (A-427): 43 nM; IC50 (MOLT-4): 58 nM; Inhibition (L cells [30]): 0%; IC50 [31]: 340 nM; inhibition [32]: 0%

Source: ChEMBL document CHEMBL1125043, “Synthesis and biological activity of an acyclic analogue of 5,6,7,8-tetrahydrofolic acid, N-[4-[[3-(2,4-diamino-1,6-dihydro-6-oxo-5- pyrimidinyl)propyl]amino]-benzoyl]-L-glutamic acid” (J Med Chem, 1990)
